{"source": "patent US8357659B2", "about": "“Method of treating pain or itching with APETx2 peptide toxin” (priority 2008, dated 2013)", "key": {"[1]": {"tested_on": "thermal hyperalgesia induced by CFA", "assay": "Inflammation-induced (CFA) thermal hyperalgesia in rats, hotplate at 50° C.", "type": "in vivo, rat", "protocol": "Sensitivity to heat of adult male Wistar rats (Charles River, France) was tested by measuring the time taken by the animal to retract one of its hind paws when placed on a hotplate at 50° C. (Bioseb, France), before and after induction of inflammation by subcutaneous injection of a solution of Freund's complete adjuvant (CFA, Sigma-Aldrich, France). The rats were acclimatised to the experimentation room for at least 30 minutes and each measurement was performed in duplicate. An initial measurement was performed before induction of inflammation. The rats were subsequently anaesthetised (isofluorane) while 150 μl of CFA diluted 1:1 with a saline solution (0.9% NaCl) containing either toxins (PcTx1 or APETx2, 120 nM and 20 μM, respectively) or the vehicle was injected (26G needle mounted on a 1 ml syringe) subcutaneously into the plantar side of one of the hind paws. The time taken by the animal to lift the injected hind paw was subsequently measured at 50° C., 2, 4 and 24 hours after the injection of CFA.\nASIC3 channel-specific iRNA (no. 1121; CTACACGCTATGCCAAGGA, SEQ ID NO: 1) and its control (no. 1121S; GCTCACACTACGCAGAGAT, SEQ ID NO: 2) were designed in the laboratory and were synthesised by MWG Biotech Company (Germany). The ASIC3-specific iRNA was validated by quantification of the messenger RNA levels by quantitative RT-PCR for each ASIC channel and for the TRPV1 channel, following intrathecal injections into the lumbar region of the spinal cord of rats, at a rate of one injection per day for 3 consecutive days, before the animal was sacrificed. The same procedure was followed before induction of inflammation by CFA. Each injection was 10 μl in volume, containing 2 μg of iRNA mixed with the transfection agent i-Fect (Neuromics) at a ratio of 1 to 4."}, "ASIC1b": {"biological_target": "T1, ASIC1b (Rattus norvegicus, UniProt P55926)", "T1 sequence (P55926 1-559 isoform P55926-3)": "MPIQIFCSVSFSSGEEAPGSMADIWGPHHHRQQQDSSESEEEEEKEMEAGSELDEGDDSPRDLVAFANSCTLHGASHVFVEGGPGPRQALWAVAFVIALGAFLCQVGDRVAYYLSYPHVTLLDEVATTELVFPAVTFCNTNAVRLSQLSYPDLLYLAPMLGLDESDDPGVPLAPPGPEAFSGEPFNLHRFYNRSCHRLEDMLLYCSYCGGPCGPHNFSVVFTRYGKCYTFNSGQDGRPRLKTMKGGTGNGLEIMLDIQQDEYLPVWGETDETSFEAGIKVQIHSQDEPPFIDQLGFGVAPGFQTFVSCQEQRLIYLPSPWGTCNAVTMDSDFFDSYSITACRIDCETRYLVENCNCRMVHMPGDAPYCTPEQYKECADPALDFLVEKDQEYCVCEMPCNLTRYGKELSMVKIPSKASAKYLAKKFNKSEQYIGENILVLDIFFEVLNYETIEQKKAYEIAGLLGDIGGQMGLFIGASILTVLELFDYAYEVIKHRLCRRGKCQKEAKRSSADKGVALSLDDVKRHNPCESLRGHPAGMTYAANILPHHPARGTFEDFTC", "conditions": "cited from earlier work"}, "heteromer ASIC1a+3": {"biological_target": "T2, heteromer ASIC1a+3 (Rattus norvegicus, UniProt O35240+P55926)", "T2 sequence (P55926 1-526)": "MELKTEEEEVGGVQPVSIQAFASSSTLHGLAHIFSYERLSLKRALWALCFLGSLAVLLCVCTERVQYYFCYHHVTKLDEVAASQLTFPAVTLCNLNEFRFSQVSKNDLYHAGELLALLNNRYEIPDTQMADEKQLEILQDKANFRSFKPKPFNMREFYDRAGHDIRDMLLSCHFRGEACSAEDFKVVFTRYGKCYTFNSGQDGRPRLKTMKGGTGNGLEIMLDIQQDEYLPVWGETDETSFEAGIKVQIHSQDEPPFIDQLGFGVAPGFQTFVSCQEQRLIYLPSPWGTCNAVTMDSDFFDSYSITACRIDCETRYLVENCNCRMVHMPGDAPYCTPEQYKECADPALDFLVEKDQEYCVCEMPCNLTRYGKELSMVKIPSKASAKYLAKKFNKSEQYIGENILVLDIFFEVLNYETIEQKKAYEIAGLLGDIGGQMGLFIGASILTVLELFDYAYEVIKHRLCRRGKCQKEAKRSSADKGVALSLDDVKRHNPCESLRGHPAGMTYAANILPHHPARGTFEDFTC", "T2 sequence (O35240 1-533)": "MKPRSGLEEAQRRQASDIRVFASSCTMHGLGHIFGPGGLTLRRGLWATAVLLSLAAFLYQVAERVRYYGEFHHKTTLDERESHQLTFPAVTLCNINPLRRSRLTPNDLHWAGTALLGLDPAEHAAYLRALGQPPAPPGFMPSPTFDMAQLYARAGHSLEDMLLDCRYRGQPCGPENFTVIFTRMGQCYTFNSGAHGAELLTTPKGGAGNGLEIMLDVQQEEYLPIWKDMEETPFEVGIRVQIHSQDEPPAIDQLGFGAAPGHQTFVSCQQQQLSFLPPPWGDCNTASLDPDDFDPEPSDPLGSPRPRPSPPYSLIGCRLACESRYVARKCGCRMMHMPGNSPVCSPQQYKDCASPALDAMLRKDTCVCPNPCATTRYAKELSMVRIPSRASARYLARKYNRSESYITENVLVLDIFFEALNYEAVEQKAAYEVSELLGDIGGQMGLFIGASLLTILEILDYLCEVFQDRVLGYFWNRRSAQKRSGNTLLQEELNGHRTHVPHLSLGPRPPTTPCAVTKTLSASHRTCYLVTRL", "conditions": "relative to ASIC3 / ASIC2b+3; cited from earlier work"}, "heteromer ASIC2a+3": {"biological_target": "T3, heteromer ASIC2a+3 (Rattus norvegicus, UniProt O35240+Q62962)", "T3 sequence (Q62962 1-512)": "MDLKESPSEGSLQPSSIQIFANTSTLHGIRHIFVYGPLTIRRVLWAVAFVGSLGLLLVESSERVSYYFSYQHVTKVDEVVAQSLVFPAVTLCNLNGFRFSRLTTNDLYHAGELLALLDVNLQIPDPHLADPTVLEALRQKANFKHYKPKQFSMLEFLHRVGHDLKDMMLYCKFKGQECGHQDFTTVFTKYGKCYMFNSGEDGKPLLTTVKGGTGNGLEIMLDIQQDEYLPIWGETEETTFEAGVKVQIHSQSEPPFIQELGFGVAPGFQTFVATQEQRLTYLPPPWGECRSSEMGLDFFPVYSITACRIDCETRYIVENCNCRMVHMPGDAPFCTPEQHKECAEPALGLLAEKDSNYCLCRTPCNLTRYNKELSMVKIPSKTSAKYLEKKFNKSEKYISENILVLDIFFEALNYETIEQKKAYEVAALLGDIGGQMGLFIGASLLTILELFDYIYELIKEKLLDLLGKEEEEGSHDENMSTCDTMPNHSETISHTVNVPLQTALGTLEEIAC", "T3 sequence (O35240 1-533)": "T2 sequence (O35240 1-533)", "conditions": "cited from earlier work"}}}
{"substance": "peptide of 42 amino acids (SEQ ID NO: 3), three disulphide bonds, from sea anemone Anthopleura elegantissima; blocks ASIC3 [APETx2]", "values": [{"measurement": "development of thermal hyperalgesia", "setting": "[1]; toxin concomitantly injected with CFA (APETx2 20 μM, PcTx1 120 nM), four hours after CFA", "value": "does not develop"}, {"measurement": "thermal hyperalgesia behaviour versus vehicle control animals", "setting": "[1]; twenty hours after the injection of CFA, data not represented", "value": "do not display any behaviour different"}, {"measurement": "effect on ASIC1b isoform", "setting": "ASIC1b", "value": "does not have any effect"}, {"measurement": "affinity for the heteromer ASIC1a+3", "setting": "heteromer ASIC1a+3", "value": "less affinity"}, {"measurement": "effect on the heteromer ASIC2a+3", "setting": "heteromer ASIC2a+3", "value": "does not have any effect"}]}
